Measured values from patent US9776979B2, “EBI2 modulators” (Sanford-Burnham Medical Research Institute, priority 2013, dated 2017).

target: EBI2 (Homo sapiens, UniProt P32249); assay: Cell-based luminescent assay (EBI2 modulation); conditions: not given
Summary of the method: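 Cells plated overnight at 37° C, then exposed to compound at 4-5 uM final with 80 nM 7a,25-OHC agonist for 60 min at 37° C. Luminescence read after 60 min detection at 25° C in the dark; values normalized to neutral and stimulator controls and plate-pattern corrected.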

Sequence of EBI2 (P32249 whole entry): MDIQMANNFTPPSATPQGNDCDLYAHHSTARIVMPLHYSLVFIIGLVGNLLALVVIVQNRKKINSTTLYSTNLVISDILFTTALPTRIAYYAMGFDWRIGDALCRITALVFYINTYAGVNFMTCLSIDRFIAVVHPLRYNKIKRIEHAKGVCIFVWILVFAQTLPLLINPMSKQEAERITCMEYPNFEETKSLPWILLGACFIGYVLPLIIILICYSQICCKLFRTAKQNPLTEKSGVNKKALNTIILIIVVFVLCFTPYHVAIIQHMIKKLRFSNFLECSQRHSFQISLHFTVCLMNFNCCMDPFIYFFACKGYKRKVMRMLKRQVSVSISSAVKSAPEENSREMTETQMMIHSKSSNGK

Q: How did the IC50 turn out when O=C(c1cc2cc(Cl)ccc2[nH]1)N1CCC(Nc2ccc(F)cc2)CC1 [Compound C226, 5-chloroindol-2-yl 4-[(4-fluorophenyl)amino]piperidyl ketone] was run?
A: Its IC50 is less than 100 nM.

Q: How did the IC50 turn out when O=C(/C=C/c1ccccc1)N1CCN(Cc2cccc(F)c2)CC1 [Compound C240, (2E)-1-{4-[(3-fluorophenyl)methyl]piperazinyl}-3-phenylprop-2-en-1-one] was run?
A: Its IC50 is less than 100 nM.

same assay, conditions: cell-based luminescence; 7a,25-OHC final assay concentration 80 nM; 60 minutes incubation; read-out: IC50

Q: For O=C(c1ccc(-c2nnn[nH]2)cc1)N1CCN(C(=O)c2cc3cc(Cl)ccc3[nH]2)CC1 [Compound C204, 5-chloroindol-2-yl 4-[(4-(1H-1,2,3,4-tetraazol-5-yl)phenyl)carbonyl]piperazinyl ketone], which IC50 is on record?
A: Its IC50 is less than 100 nM.

Q: How did the IC50 turn out when O=C(/C=C/c1ccc(F)cc1)N1CCN(S(=O)(=O)c2ccccc2)CC1 [Compound C205, (2E)-3-(4-fluorophenyl)-1-[4-(phenylsulfonyl)piperazinyl]prop-2-en-1-one] was run?
A: The IC50 was less than 100 nM.

Q: Which IC50 does the source give for O=C(/C=C/c1ccc(F)cc1)N1CCN(S(=O)(=O)c2ccc([N+](=O)[O-])cc2)CC1 [Compound C206, (2E)-3-(4-fluorophenyl)-1-{4-[(4-nitrophenyl)sulfonyl]piperazinyl}prop-2-en-1-one] here?
A: The IC50 was less than 100 nM.

Q: With O=C(c1cc2cc(Br)ccc2[nH]1)N1CCN(C(=O)c2ccc(F)cc2C(F)(F)F)CC1 [Compound C208, 5-bromoindol-2-yl 4-{[4-fluoro-2-(trifluoromethyl)phenyl]carbonyl}piperazinyl ketone] as the compound, how does the IC50 read?
A: The IC50 was less than 100 nM.

Q: How did the IC50 turn out when O=C(/C=C/c1ccc(F)cc1)N1CCN(S(=O)(=O)c2cccc(Br)c2)CC1 [Compound C209, (2E)-1-{4-[(3-bromophenyl)sulfonyl]piperazinyl}-3-(4-fluorophenyl)prop-2-en-1-one] was run?
A: The IC50 was less than 100 nM.

Q: Which IC50 does the source give for O=C(/C=C/c1ccc(Cl)c(Cl)c1)N1CCN(Cc2ccc(F)cc2)CC1 [Compound C210, (2E)-3-(3,4-dichlorophenyl)-1-{4-[(4-fluorophenyl)methyl]piperazinyl}prop-2-en-1-one] here?
A: The IC50 was less than 100 nM.

Q: With O=C(c1cc2cc(C(F)(F)F)ccc2[nH]1)N1CCN(Cc2ccc(F)cc2)CC1 [Compound C211, 4-[(4-fluorophenyl)methyl]piperazinyl 5-(trifluoromethyl)indol-2-yl ketone] as the compound, how does the IC50 read?
A: The IC50 was less than 100 nM.

Q: With O=C(/C=C/c1ccc(F)cc1)N1CCN(S(=O)(=O)c2cccc(F)c2)CC1 [Compound C212, (2E)-3-(4-fluorophenyl)-1-{4-[(3-fluorophenyl)sulfonyl]piperazinyl}prop-2-en-1-one] as the compound, how does the IC50 read?
A: Its IC50 is less than 100 nM.

Q: CCOc1ccc(/C=C/C(=O)N2CCN(S(=O)(=O)c3ccc(Br)cc3)CC2)cc1 [Compound C213, (2E)-1-{4-[(4-bromophenyl)sulfonyl]piperazinyl}-3-(4-ethoxyphenyl)prop-2-en-1-one] was tested. Which IC50 did it give?
A: Its IC50 is less than 100 nM.

Q: Which IC50 does the source give for O=C(/C=C/c1ccc(Cl)c(Cl)c1)N1CCN(Cc2ccc(Cl)cc2)CC1 [Compound C214, (2E)-3-(3,4-dichlorophenyl)-1-{4-[(4-chlorophenyl)methyl]piperazinyl}prop-2-en-1-one] here?
A: Its IC50 is less than 100 nM.

Q: Which IC50 does the source give for O=C(c1cc2ccc(F)cc2[nH]1)N1CCN(C(c2ccccc2)c2ccccc2)CC1 [Compound C215, 4-(diphenylmethyl)piperazinyl 6-fluoroindol-2-yl ketone] here?
A: Its IC50 is less than 100 nM.

Q: O=C(C=Cc1ccc2c(c1)OCO2)N1CCN(C(=O)c2ccc(F)cc2)CC1 [Compound C216, 3-(2H-benzo[3,4-d]1,3-dioxolen-5-yl)-1-{4-[(4-fluorophenyl)carbonyl]piperazinyl}prop-2-en-1-one] was tested. Which IC50 did it give?
A: The IC50 was less than 100 nM.

Q: How did the IC50 turn out when O=C(c1cc2cc(-c3ccccc3)ccc2[nH]1)N1CCN(C(c2ccccc2)c2ccccc2)CC1 [Compound C217, 4-(diphenylmethyl)piperazinyl 5-phenylindol-2-yl ketone] was run?
A: The IC50 was less than 100 nM.

Q: O=C(/C=C/c1ccc(C(F)(F)F)cc1)N1CCN(C(=O)c2cc3cc(Cl)ccc3[nH]2)CC1 [Compound C218, (2E)-1-{4-[(5-chloroindol-2-yl)carbonyl]piperazinyl}-3-[4-(trifluoromethyl)phenyl]prop-2-en-1-one] was tested. Which IC50 did it give?
A: Its IC50 is less than 100 nM.

Q: With Cc1ccc2[nH]c(C(=O)N3CCN(Cc4ccc(F)cc4)CC3)cc2c1 [Compound C219, 4-[(4-fluorophenyl)methyl]piperazinyl 5-methylindol-2-yl ketone] as the compound, how does the IC50 read?
A: The IC50 was less than 100 nM.

Q: How did the IC50 turn out when COc1ccc(-c2ccc3[nH]c(C(=O)N4CCN(C(c5ccccc5)c5ccccc5)CC4)cc3c2)cc1 [Compound C220, 4-(diphenylmethyl)piperazinyl 5-(4-methoxyphenyl)indol-2-yl ketone] was run?
A: The IC50 was less than 100 nM.

Q: Which IC50 does the source give for O=C(/C=C/c1ccc(F)cc1)N1CCN(S(=O)(=O)c2ccc3ccccc3c2)CC1 [Compound C221, (2E)-3-(4-fluorophenyl)-1-[4-(2-naphthylsulfonyl)piperazinyl]prop-2-en-1-one] here?
A: The IC50 was less than 100 nM.

Q: For CCN1CCN(C(=O)/C=C/c2ccc(Br)cc2)CC1 [Compound C222, (2E)-3-(4-bromophenyl)-1-(4-ethylpiperazinyl)prop-2-en-1-one], which IC50 is on record?
A: Its IC50 is less than 100 nM.

Q: Nc1ccc2cc(C(=O)N3CCN(C(c4ccccc4)c4ccccc4)CC3)ccc2c1 [Compound C223, 6-amino(2-naphthyl) 4-(diphenylmethyl)piperazinyl ketone] was tested. Which IC50 did it give?
A: Its IC50 is less than 100 nM.

Q: Which IC50 does the source give for Cc1ccc(C#CC(=O)N2CCN(C(=O)c3ccc(F)cc3C(F)(F)F)CC2)cc1 [Compound C224, 1-(4-{[4-fluoro-2-(trifluoromethyl)phenyl]carbonyl}piperazinyl)-3-(4-methylphenyl)prop-2-yn-1-one] here?
A: The IC50 was less than 100 nM.

Q: How did the IC50 turn out when O=C(/C=C/c1ccc(F)cc1)N1CCN(S(=O)(=O)c2cc(Cl)ccc2Cl)CC1 [Compound C225, (2E)-1-{4-[(2,5-dichlorophenyl)sulfonyl]piperazinyl}-3-(4-fluorophenyl)prop-2-en-1-one] was run?
A: The IC50 was less than 100 nM.

Q: How did the IC50 turn out when Cc1cc2[nH]c(C(=O)N3CCN(C(c4ccccc4)c4ccccc4)CC3)cc2s1 [Compound C228, 4-(diphenylmethyl)piperazinyl 2-methylthiopheno[2,3-d]pyrrol-5-yl ketone] was run?
A: The IC50 was less than 100 nM.

Q: Which IC50 does the source give for O=C(c1ccccc1)C1CCN(C(=O)c2cc3cc(Cl)ccc3[nH]2)CC1 [Compound C229, 5-chloroindol-2-yl 4-(phenylcarbonyl)piperidyl ketone] here?
A: Its IC50 is less than 100 nM.

Q: With O=C(/C=C/c1ccc(Cl)c(Cl)c1)N1CCN(S(=O)(=O)c2ccccc2)CC1 [Compound C230, (2E)-3-(3,4-dichlorophenyl)-1-[4-(phenylsulfonyl)piperazinyl]prop-2-en-1-one] as the compound, how does the IC50 read?
A: The IC50 was less than 100 nM.

Q: For O=C(C#Cc1ccc(C(F)(F)F)cc1)N1CCN(Cc2ccc(F)cc2)CC1 [Compound C231, 1-{4-[(4-fluorophenyl)methyl]piperazinyl}-3-[4-(trifluoromethyl)phenyl]prop-2-yn-1-one], which IC50 is on record?
A: The IC50 was less than 100 nM.

Q: CCN(CC)c1ccc(C(=O)N2CCN(C(=O)c3cc4cc(Cl)ccc4[nH]3)CC2)cc1 [Compound C232, 4-{[4-(diethylamino)phenyl]carbonyl}piperazinyl 5-chloroindol-2-yl ketone] was tested. Which IC50 did it give?
A: The IC50 was less than 100 nM.

Q: How did the IC50 turn out when CN(C)c1ccc(/C=C/C(=O)N2CCN(C(c3ccccc3)c3ccccc3)CC2)cc1 [Compound C233, (2E)-3-[4-(dimethylamino)phenyl]-1-[4-(diphenylmethyl)piperazinyl]prop-2-en-1-one] was run?
A: Its IC50 is less than 100 nM.

Q: How did the IC50 turn out when O=C(C=Cc1ccc2c(c1)OCO2)N1CCN(C(=O)c2ccc(Br)cc2)CC1 [Compound C234, 3-(2H-benzo[3,4-d]1,3-dioxolan-5-yl)-1-{4-[(4-bromophenyl)carbonyl]piperazinyl}prop-2-en-1-one] was run?
A: The IC50 was less than 100 nM.

Q: For O=C(/C=C/c1ccc(F)cc1)N1CCN(S(=O)(=O)c2ccc(F)cc2)CC1 [Compound C235, (2E)-3-(4-fluorophenyl)-1-{4-[(4-fluorophenyl)sulfonyl]piperazinyl}prop-2-en-1-one], which IC50 is on record?
A: The IC50 was less than 100 nM.

Q: With COc1ccc(CN2CCN(C(=O)C#Cc3ccc(C)cc3)CC2)cc1 [Compound C236, 1-{4-[(4-methoxyphenyl)methyl]piperazinyl}-3-(4-methylphenyl)prop-2-yn-1-one] as the compound, how does the IC50 read?
A: The IC50 was less than 100 nM.

Q: For O=C(/C=C/c1ccc(F)cc1)N1CCN(S(=O)(=O)c2ccccc2F)CC1 [Compound C237, (2E)-3-(4-fluorophenyl)-1-{4-[(2-fluorophenyl)sulfonyl]piperazinyl}prop-2-en-1-one], which IC50 is on record?
A: Its IC50 is less than 100 nM.

Q: O=C(C=Cc1ccc2c(c1)OCO2)N1CCN(C(=O)c2ccc(Cl)cc2)CC1 [Compound C238, 3-(2H-benzo[3,4-d]1,3-dioxolen-5-yl)-1-{4-[(4-chlorophenyl)carbonyl]piperazinyl}prop-2-en-1-one] was tested. Which IC50 did it give?
A: The IC50 was less than 100 nM.

Q: Cc1ccccc1/C=C/C(=O)N1CCN(C(c2ccccc2)c2ccccc2)CC1 [Compound C241, (2E)-1-[4-(diphenylmethyl)piperazinyl]-3-(2-methylphenyl)prop-2-en-1-one] was tested. Which IC50 did it give?
A: Its IC50 is less than 100 nM.

Q: With Cn1c(C(=O)N2CCN(C(c3ccccc3)c3ccccc3)CC2)cc2ccccc21 [Compound C242, 4-(diphenylmethyl)piperazinyl 1-methylindol-2-yl ketone] as the compound, how does the IC50 read?
A: The IC50 was less than 100 nM.

Q: With O=C(c1ccccc1)N1CCN(C(=O)c2cc3cc(Cl)ccc3[nH]2)CC1 [Compound C243, 5-chloroindol-2-yl 4-(phenylcarbonyl)piperazinyl ketone] as the compound, how does the IC50 read?
A: Its IC50 is less than 100 nM.

Q: For Cc1ccc2[nH]c(C(=O)N3CCN(Cc4ccc(C(C)(C)C)cc4)CC3)cc2c1 [Compound C244, 4-{[4-(tert-butyl)phenyl]methyl}piperazinyl 5-methylindol-2-yl ketone], which IC50 is on record?
A: The IC50 was less than 100 nM.

Q: For Cc1ccc(C#CC(=O)N2CCN(Cc3ccc(Cl)cc3)CC2)cc1 [Compound C245, 1-{4-[(4-chlorophenyl)methyl]piperazinyl}-3-(4-methylphenyl)prop-2-yn-1-one], which IC50 is on record?
A: The IC50 was less than 100 nM.

Q: With O=C(c1cc2cc(C(F)(F)F)ccc2[nH]1)N1CCN(C(=O)c2ccc(Cl)cc2Cl)CC1 [Compound C246, 4-[(2,4-dichlorophenyl)carbonyl]piperazinyl 5-(trifluoromethyl)indol-2-yl ketone] as the compound, how does the IC50 read?
A: The IC50 was less than 100 nM.

Q: Which IC50 does the source give for O=C(c1ccc2sccc2c1)N1CCN(C(c2ccccc2)c2ccccc2)CC1 [Compound C247, benzo[b]thiophen-5-yl 4-(diphenylmethyl)piperazinyl ketone] here?
A: The IC50 was less than 100 nM.
